According to patent publication US20150206621A1, “Electrical Insulator Comprising An Organofluorine Compound And Method For Producing It” (priority 2012, published 2015):

Test: toxicity / lethal concentration LC50
Type: in vivo

| SMILES | toxicity (in words) (in vivo) | LC50 (in vivo) | risk for human toxicity (in words) (concluded from available results of mammalian HFC (hydrofluorocarbon) tests) |
| --- | --- | --- | --- |
| O=C(C(F)(F)F)C(F)(C(F)(F)F)C(F)(F)F [C5-ketone, 1,1,1,3,4,4,4-heptafluoro-3-(trifluoromethyl)butan-2-one] | practically non-toxic | – | – |
| O=C(C(F)(F)C(F)(F)F)C(F)(C(F)(F)F)C(F)(F)F [C6-ketone, 1,1,1,2,4,4,5,5,5-Nonafluoro-2-(trifluoromethyl)pentan-3-one] | non-toxic | about 100'000 ppm | – |
| FC(F)(F)COC(F)(F)F [2,2,2-trifluoroethyl-trifluoromethyl ether] | – | – | low risk for human toxicity |
